Legend:
THZ1 = compound: CN(C)C/C=C/C(=O)Nc1ccc(C(=O)Nc2cccc(Nc3ncc(Cl)c(-c4c[nH]c5ccccc45)n3)c2)cc1 [THZ1]; assay: GR value, 72 h; higher = faster growth (1 = untreated, <0 = killing);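 note: breast cancer and non-malignant breast epithelial lines, nine half-log doses, viable cells counted by Hoechst and LIVE/DEAD dye imaging versus time-zero plates and DMSO controls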
[1] = compound: CCc1cnn2c(NCc3ccc[n+]([O-])c3)cc(N3CCCC[C@H]3CCO)nc12; assay: as above
[2] = compound: CCN1CCN(Cc2ccc(Nc3ncc(F)c(-c4cc(F)c5nc(C)n(C(C)C)c5c4)n3)nc2)CC1; assay: as above
BSJ-03-123 [3] = compound: T1, CC(=O)c1c(C)c2cnc(Nc3ccc(N4CCN(CCOCCOCCOCCNC(=O)COc5cccc6c5C(=O)N(C5CCC(=O)NC5=O)C6=O)CC4)cn3)nc2n(C2CCCC2)c1=O [BSJ-03-123]; assay: as above
YKL-5-124 = compound: C=CC(=O)Nc1ccc(C(=O)Nc2[nH]nc3c2CN(C(=O)N[C@H](CN(C)C)c2ccccc2)C3(C)C)cc1 [YKL-5-124]; assay: as above
THZ531 = compound: CN(C)C/C=C/C(=O)Nc1ccc(C(=O)N2CCC[C@@H](Nc3ncc(Cl)c(-c4c[nH]c5ccccc45)n3)C2)cc1 [THZ531]; assay: as above
LEE011/Ribociclib = compound: CN(C)C(=O)c1cc2cnc(Nc3ccc(N4CCNCC4)cn3)nc2n1C1CCCC1 [LEE011/Ribociclib]; assay: as above
Flavopiridol [4] = compound: T2, CN1CC[C@H](c2c(O)cc(O)c3c(=O)cc(-c4ccccc4Cl)oc23)[C@H](O)C1 [Flavopiridol]; assay: as above
BVD523 = compound: CC(C)Nc1cc(-c2c[nH]c(C(=O)N[C@H](CO)c3cccc(Cl)c3)c2)c(Cl)cn1 [BVD523]
R0-3306 = compound: C1=CC2=C(C=CC(=C2)C=C3C(=O)NC(=NCC4=CC=CS4)S3)N=C1 [R0-3306]
Paclitaxel = compound: CC(=O)O[C@H]1C(=O)[C@@]2(C)[C@H]([C@H](OC(=O)c3ccccc3)[C@]3(O)C[C@H](OC(=O)[C@H](O)[C@@H](NC(=O)c4ccccc4)c4ccccc4)C(C)=C1C3(C)C)[C@]1(OC(C)=O)CO[C@@H]1C[C@@H]2O [Paclitaxel]
[5] = compound: CCC1=CN=CN=C1N2CCN(CC2)CC3=NC4=C(N3)C=C(C=C4)C(F)(F)F
BSJ-03-123 [6] = compound: T1, BSJ-03-123
AZD5363 = compound: NC1(C(=O)N[C@@H](CCO)c2ccc(Cl)cc2)CCN(c2nc[nH]c3nccc2-3)CC1 [AZD5363]
[7] = compound: CO[C@@H](C)Cn1c(=O)n(C)c2cnc3ccc(-c4cncc(C(C)(C)O)c4)cc3c21
Neratinib/HKI272 = compound: CCOc1cc2ncc(C#N)c(Nc3ccc(OCc4ccccn4)c(Cl)c3)c2cc1NC(=O)/C=C/CN(C)C [Neratinib/HKI272]
Flavopiridol [8] = compound: T2, Flavopiridol
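Throughout, for GR50, 72 h: breast cancer and non-malignant breast epithelial cell lines, Deep Dye Drop or Dye Drop imaging, nine half-log doses, GR normalized to time-zero plates and DMSO-only controls.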

MDAMB468
GR value (THZ1; 0.0001 µM): 1 GR
GR value (THZ1; 0.0003162 µM): 1.07 GR
GR value (THZ1; 0.001 µM): 1 GR
GR value (THZ1; 0.003162 µM): 0.92 GR
GR value (THZ1; 0.01 µM): 0.76 GR
GR value (THZ1; 0.03162 µM): 0.375 GR
GR value (THZ1; 0.1 µM): -0.131 GR
GR value (THZ1; 0.3162 µM): -0.226 GR
GR value (THZ1; 1 µM): -0.435 GR
GR value ([1]; 0.0001 µM): 0.988 GR
GR value ([1]; 0.0003162 µM): 1.01 GR
GR value ([1]; 0.001 µM): 0.985 GR
GR value ([1]; 0.003162 µM): 1.03 GR
GR value ([1]; 0.01 µM): 0.863 GR
GR value ([1]; 0.03162 µM): -0.106 GR
GR value ([1]; 0.1 µM): -0.255 GR
GR value ([1]; 0.3162 µM): -0.339 GR
GR value ([1]; 1 µM): -0.412 GR
GR value ([2]; 0.001 µM): 0.94 GR
GR value ([2]; 0.003162 µM): 0.966 GR
GR value ([2]; 0.01 µM): 0.979 GR
GR value ([2]; 0.03162 µM): 1.04 GR
GR value ([2]; 0.1 µM): 1.06 GR
GR value ([2]; 0.3162 µM): 1.01 GR
GR value ([2]; 1 µM): 0.811 GR
GR value ([2]; 3.162 µM): 0.321 GR
GR value ([2]; 10 µM): -0.34 GR
GR value (BSJ-03-123 [3]; 0.001 µM): 1 GR
GR value (BSJ-03-123 [3]; 0.003162 µM): 0.923 GR
GR value (BSJ-03-123 [3]; 0.01 µM): 0.902 GR
GR value (BSJ-03-123 [3]; 0.03162 µM): 0.806 GR
GR value (BSJ-03-123 [3]; 0.1 µM): 0.91 GR
GR value (BSJ-03-123 [3]; 0.3162 µM): 0.771 GR
GR value (BSJ-03-123 [3]; 1 µM): 0.636 GR
GR value (BSJ-03-123 [3]; 3.162 µM): 0.476 GR
GR value (BSJ-03-123 [3]; 10 µM): -0.0278 GR
GR value (YKL-5-124; 0.001 µM): 0.23 GR
GR value (YKL-5-124; 0.003162 µM): 0.077 GR
GR value (YKL-5-124; 0.01 µM): 0 GR
GR value (YKL-5-124; 0.03162 µM): -0.101 GR
GR value (YKL-5-124; 0.1 µM): -0.149 GR
GR value (YKL-5-124; 0.3162 µM): -0.177 GR
GR value (YKL-5-124; 1 µM): -0.217 GR
GR value (YKL-5-124; 3.162 µM): -0.309 GR
GR value (YKL-5-124; 10 µM): -0.549 GR
GR value (THZ531; 0.0001 µM): 1.02 GR
GR value (THZ531; 0.0003162 µM): 1 GR
GR value (THZ531; 0.001 µM): 0.926 GR
GR value (THZ531; 0.003162 µM): 1.04 GR
GR value (THZ531; 0.01 µM): 0.906 GR
GR value (THZ531; 0.03162 µM): 0.636 GR
GR value (THZ531; 0.1 µM): 0.082 GR
GR value (THZ531; 0.3162 µM): -0.19 GR
GR value (THZ531; 1 µM): -0.188 GR
GR value (LEE011/Ribociclib; 0.001 µM): 0.985 GR
GR value (LEE011/Ribociclib; 0.003162 µM): 1.04 GR
GR value (LEE011/Ribociclib; 0.01 µM): 0.951 GR
GR value (LEE011/Ribociclib; 0.03162 µM): 1.01 GR
GR value (LEE011/Ribociclib; 0.1 µM): 1.05 GR
GR value (LEE011/Ribociclib; 0.3162 µM): 0.965 GR
GR value (LEE011/Ribociclib; 1 µM): 0.935 GR
GR value (LEE011/Ribociclib; 3.162 µM): 1 GR
GR value (LEE011/Ribociclib; 10 µM): 1.02 GR
GR value (Flavopiridol [4]; 0.0001 µM): 0.989 GR
GR value (Flavopiridol [4]; 0.0003162 µM): 0.962 GR
GR value (Flavopiridol [4]; 0.001 µM): 0.929 GR
GR value (Flavopiridol [4]; 0.003162 µM): 0.953 GR
GR value (Flavopiridol [4]; 0.01 µM): 0.931 GR
GR value (Flavopiridol [4]; 0.03162 µM): 0.898 GR
GR value (Flavopiridol [4]; 0.1 µM): 0.662 GR
GR value (Flavopiridol [4]; 0.3162 µM): 0.213 GR
GR value (Flavopiridol [4]; 1 µM): -0.426 GR
GR50, 72 h (BVD523): 1.64 µM
GR50, 72 h (R0-3306): 4.57 µM
GR50, 72 h (Paclitaxel): 0.00135 µM
GR50, 72 h [5]: 4.17 µM
GR50, 72 h (BSJ-03-123 [6]): 1.71 µM
GR50, 72 h (AZD5363): > 10 µM
GR50, 72 h [7]: 0.0123 µM
GR50, 72 h (Neratinib/HKI272): 0.158 µM
GR50, 72 h (Flavopiridol [8]): 0.173 µM

MDAMB415
GR value (THZ1; 0.0001 µM): 0.979 GR
GR value (THZ1; 0.0003162 µM): 0.999 GR
GR value (THZ1; 0.001 µM): 0.995 GR
GR value (THZ1; 0.003162 µM): 0.857 GR
GR value (THZ1; 0.01 µM): 0.797 GR
GR value (THZ1; 0.03162 µM): 0.524 GR
GR value (THZ1; 0.1 µM): 0.216 GR
GR value (THZ1; 0.3162 µM): -0.218 GR
GR value (THZ1; 1 µM): -0.408 GR
GR value ([1]; 0.0001 µM): 1.06 GR
GR value ([1]; 0.0003162 µM): 1.04 GR
GR value ([1]; 0.001 µM): 1.18 GR
GR value ([1]; 0.003162 µM): 1.2 GR
GR value ([1]; 0.01 µM): 0.935 GR
GR value ([1]; 0.03162 µM): -0.112 GR
GR value ([1]; 0.1 µM): -0.482 GR
GR value ([1]; 0.3162 µM): -0.48 GR
GR value ([1]; 1 µM): -0.484 GR
GR value ([2]; 0.001 µM): 0.878 GR
GR value ([2]; 0.003162 µM): 0.833 GR
GR value ([2]; 0.01 µM): 0.478 GR
GR value ([2]; 0.03162 µM): 0.21 GR
GR value ([2]; 0.1 µM): 0.136 GR
GR value ([2]; 0.3162 µM): 0.113 GR
GR value ([2]; 1 µM): 0.086 GR
GR value ([2]; 3.162 µM): 0.0858 GR
GR value ([2]; 10 µM): 0.0092 GR
GR value (BSJ-03-123 [3]; 0.001 µM): 0.922 GR
GR value (BSJ-03-123 [3]; 0.003162 µM): 0.789 GR
GR value (BSJ-03-123 [3]; 0.01 µM): 0.714 GR
GR value (BSJ-03-123 [3]; 0.03162 µM): 0.825 GR
GR value (BSJ-03-123 [3]; 0.1 µM): 0.744 GR
GR value (BSJ-03-123 [3]; 0.3162 µM): 0.674 GR
GR value (BSJ-03-123 [3]; 1 µM): 0.61 GR
GR value (BSJ-03-123 [3]; 3.162 µM): 0.545 GR
GR value (BSJ-03-123 [3]; 10 µM): 0.181 GR
GR value (YKL-5-124; 0.001 µM): 0.597 GR
GR value (YKL-5-124; 0.003162 µM): 0.543 GR
GR value (YKL-5-124; 0.01 µM): 0.372 GR
GR value (YKL-5-124; 0.03162 µM): 0.396 GR
GR value (YKL-5-124; 0.1 µM): 0.338 GR
GR value (YKL-5-124; 0.3162 µM): 0.279 GR
GR value (YKL-5-124; 1 µM): 0.323 GR
GR value (YKL-5-124; 3.162 µM): 0.24 GR
GR value (YKL-5-124; 10 µM): -0.0052 GR
GR value (THZ531; 0.0001 µM): 0.975 GR
GR value (THZ531; 0.0003162 µM): 0.9 GR
GR value (THZ531; 0.001 µM): 0.875 GR
GR value (THZ531; 0.003162 µM): 1.05 GR
GR value (THZ531; 0.01 µM): 0.946 GR
GR value (THZ531; 0.03162 µM): 0.731 GR
GR value (THZ531; 0.1 µM): 0.0348 GR
GR value (THZ531; 0.3162 µM): -0.33 GR
GR value (THZ531; 1 µM): -0.343 GR
GR value (LEE011/Ribociclib; 0.001 µM): 0.708 GR
GR value (LEE011/Ribociclib; 0.003162 µM): 0.659 GR
GR value (LEE011/Ribociclib; 0.01 µM): 0.504 GR
GR value (LEE011/Ribociclib; 0.03162 µM): 0.395 GR
GR value (LEE011/Ribociclib; 0.1 µM): 0.287 GR
GR value (LEE011/Ribociclib; 0.3162 µM): 0.248 GR
GR value (LEE011/Ribociclib; 1 µM): 0.264 GR
GR value (LEE011/Ribociclib; 3.162 µM): 0.278 GR
GR value (LEE011/Ribociclib; 10 µM): 0.222 GR
GR value (Flavopiridol [4]; 0.0001 µM): 1 GR
GR value (Flavopiridol [4]; 0.0003162 µM): 1.01 GR
GR value (Flavopiridol [4]; 0.001 µM): 0.869 GR
GR value (Flavopiridol [4]; 0.003162 µM): 0.766 GR
GR value (Flavopiridol [4]; 0.01 µM): 0.972 GR
GR value (Flavopiridol [4]; 0.03162 µM): 0.821 GR
GR value (Flavopiridol [4]; 0.1 µM): 0.788 GR
GR value (Flavopiridol [4]; 0.3162 µM): 0.25 GR
GR value (Flavopiridol [4]; 1 µM): -0.298 GR
GR50, 72 h (BVD523): > 10 µM
GR50, 72 h (R0-3306): > 10 µM
GR50, 72 h (Paclitaxel): 0.000687 µM
GR50, 72 h [5]: 8.3 µM
GR50, 72 h (BSJ-03-123 [6]): 1.36 µM
GR50, 72 h (AZD5363): 0.0101 µM
GR50, 72 h [7]: < 0.001 µM
GR50, 72 h (Neratinib/HKI272): 1.65 µM
GR50, 72 h (Flavopiridol [8]): 0.172 µM

From the supplement of paper PMC9663587
